Values of other authors in patent publication US20240261224A1, “FORMULATION OF A PAN-JAK INHIBITOR” (KINASET THERAPEUTICS, INC., priority 2022, published 2024).
Read-outs that look alike come from different tables or passages of the source. Marks after values point to notes of the source that are not given here.

Assays:
[1] = system: fractional exhaled nitric oxide (FeNO); settings: cited from earlier work
[2] = marketed DPI; cited from earlier work

CN(CCC#N)C1CCN(C(=O)Cn2cc(NC(=O)c3cnn4cccnc34)c(-c3cc(Cl)ccc3OC(F)F)n2)CC1 [GDC-0214]
Mean placebo-corrected FeNO reduction ([1]; 1.0 mg QD, 1 capsule per dose, an increase in FeNO was observed): 0.4%* | Mean placebo-corrected FeNO reduction ([1]; 4.0 mg QD, 4 capsules per dose): −6.5% | Mean placebo-corrected FeNO reduction ([1]; 15.0 mg BID, 30 capsules per dose): −42% | Mean placebo-corrected FeNO reduction ([1]; 15.0 mg QD, 15 capsules per dose): −23%

CCC(=O)O[C@]1(C(=O)SCF)[C@H](C)C[C@H]2[C@@H]3C[C@H](F)C4=CC(=O)C=C[C@]4(C)[C@@]3(F)[C@@H](O)C[C@@]21C [fluticasone propionate]
MMAD (μm) [2]: 6-7 μm
